Here are results for 37 compounds from PubChem BioAssay (NCI).

Values joined by “and” are separate entries in the source; they are usually repeats but may differ in a detail not shown here. Equal entries are not always repeated.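 Grown in 96-well plates, cells were treated for 48 hours with each compound at five concentrations. Insufficient inhibition: endpoint recorded as highest concentration tested. GI50 marks 50% less growth. The concentration for full growth arrest is given as TGI.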

The subject of the experiment is MDA-MB-468 breast. Kind of experiment: NCI anticancer screen, dose series, 48 h.
With `COc1cnc2c(c1)C(=O)c1c-2n(CCCn2ccnc2)c(=O)c2cc(F)ccc12`, the GI50 was 19.7 nM and the TGI is 154 nM.
On the same counts, the results for `CN[C@@H](C)C(=O)N[C@H](C(=O)N1CCC[C@H]1C(=O)Nc1snnc1-c1ccccc1)C1CCCCC1` are 16000 nM and 59400 nM.
The like results for `O=C(CCCCCCCCC(=O)N/N=C\c1ccccc1O)N/N=C\c1ccccc1O` were, in that order, 1620 nM and 5230 nM.
In the case of `CC(C)[C@H](N)C(=O)N1CCC[C@H]1B(O)O`, the GI50 is greater than 100000 nM and the TGI was greater than 100000 nM.
In the case of `CCN(CC)CCCC(C)Nc1ccnc2cc(Oc3ccccc3)ccc12` (configuration not stated), the GI50 was 3060 nM and 3950 nM; the TGI is 13300 nM and 15100 nM.
Turning to `C=C1C(=O)O[C@H]2[C@H]1CC/C(COC(=O)NCc1cn(C)c3ccccc13)=C\CC[C@@]1(C)O[C@@H]21`, the GI50 is 836 nM and the TGI is 2950 nM.
On to `Nc1c(C(=O)c2cccc(-c3ccncc3)c2)cnn1-c1ccc(F)cc1F`, for which the GI50 was 2180 nM and the TGI was determined as 17900 nM.
With `COc1cc(CSc2nc3ccc(C)cc3c(=O)n2-c2ccccc2)cc(OC)c1OC`, the GI50 is 266 nM and the TGI is 2110 nM.
Turning to `C#Cc1c(F)ccc2cc(O)cc(-c3ncc4c(N5CC6CCC(C5)N6)nc(OC[C@@]56CCCN5C[C@H](F)C6)nc4c3F)c12`, the GI50 is 4780 nM and the TGI was determined as 11900 nM.
With `CC(C)(C)c1ccc(Oc2nccc(-c3c(-c4ccc(F)cc4)ncn3C3CCNCC3)n2)cc1`, the GI50 was 2580 nM and the TGI stood at 5970 nM.
With `C=C1C(=O)O[C@H]2[C@H]1CC/C(COC(=O)NCc1ccc(Cn3c(=O)sn(CCCl)c3=O)cc1)=C\CC[C@@]1(C)O[C@@H]21`, the GI50 is 1780 nM and the TGI worked out at 4520 nM.
For `CCN(CC)CCCCNc1c2ccccc2[n+](C)c2c1[nH]c1ccccc12`, the GI50 is 222 nM and the TGI turned out to be 4850 nM.
Consider `COc1cc(NC(C)CCCNC2CN3CCC2CC3)c2ncccc2c1` (configuration not stated), for which the GI50 was 1710 nM and the TGI was 3840 nM.
On the same counts, the results for `CC(C)(C)n1cc(-c2ccnc(NCCCNS(=O)(=O)c3ccc(C(F)(F)F)cc3)c2)c(-c2cccc(O)c2)n1` are 1880 nM and 4060 nM.
On the same counts, the results for `CN(C)CCN1C(=O)c2ccccc2N(C)c2ccccc21` are greater than 100000 nM and greater than 100000 nM.
Turning to `COc1ccc(-c2nc(-c3nc4ccc(OC)cc4[nH]3)c3ccccn23)cc1`, the GI50 is 4080 nM and the TGI amounted to 84500 nM.
Take `COC(=O)c1nc(-c2ccccc2)oc1S(=O)(=O)Cc1ccccc1`: the GI50 was 1850 nM and the TGI came out at 4020 nM.
As for `COc1ccc(-c2c[nH]c(C(=O)O)c2-c2cc(OC)c(OC)c(OC)c2)cc1`, the GI50 was 2240 nM and the TGI turned out to be 6780 nM.
Consider `COc1ccc(C(=O)OC2C(OC3C(O)COC(O[C@H]4C[C@H]5[C@@H]6CC=C7C[C@@H](O)CC[C@]7(C)[C@H]6CC[C@]5(C)[C@H]4[C@H](C)C(=O)CCC(C)C)C3OC(N)=O)OCC(O)C2O)cc1` (some centres not stated), for which the GI50 was 78.1 nM and the TGI worked out at 1600 nM.
On to `COc1ccc(C(=O)c2cc(OC)c(OC)c(OC)c2)cc1OC(=O)CCl`, for which the GI50 was 787 nM.
Regarding `FC(F)(F)c1ccc(Nc2nc(-c3c(C(F)(F)F)nc4ccccn34)cs2)cc1`, the GI50 was 160 nM and the TGI is 1040 nM.
As for `C=C1CCC2C3(C)COC(c4ccc(N(C)C)cc4)OC3CCC2(C)C1C/C=C1/C(=O)OCC1O` (configuration not stated), the GI50 is 1440 nM and the TGI came to 3090 nM.
The like results for `COc1ccc2[nH]c(O)c(N=NC(=O)c3oc4ccccc4c3C)c2c1` were, in that order, 2600 nM and 6530 nM.
On to `O=C(NNc1nc2cc(F)ccc2n2c(CO)ccc12)c1cnccn1`, for which the GI50 was 448 nM and the TGI came to 3340 nM.
On to `Cc1c(C(N)=O)sc2c1C(=O)N(Cc1ccccc1)C1=NN=C(c3ccc(Cl)cc3)CN12`, for which the GI50 is 1930 nM and the TGI amounted to 7540 nM.
For the compound `O=C(CCCCCCC(=O)Nc1ccccc1)NO`, the GI50 is 361 nM and 899 nM; the TGI is 12300 nM and 10800 nM.
As for `C[C@H]1[C@H](C)CC[C@]2(CO)CC[C@]3(C)C(=CC[C@@H]4[C@@]5(C)CCCNC(C)(C)[C@@H]5CC[C@]43C)[C@H]12`, the GI50 was 1700 nM and the TGI was determined as 3440 nM.
As for `C#C[C@]1(O)CC[C@H]2[C@@H]3CC=C4c5sc(Nc6ccncc6)nc5CC[C@]4(C)[C@H]3CC[C@@]21C`, the GI50 was 477 nM and the TGI came to 2270 nM.
In the case of `CC(C)(C)OC(=O)N1CCN(CCn2cc(C(F)(F)F)c3c(Cl)ncnc32)CC1`, the GI50 was 1920 nM and the TGI was 3770 nM.
The like results for `COc1c(C)c2c(c(O)c1C/C=C(\C)CCC(=O)O)C(=O)OC2` were, in that order, 515 nM and greater than 100000 nM.
As for `c1ccc2[nH]c(-c3ccc(-c4nccc5c4[nH]c4ccccc45)cc3)nc2c1`, the GI50 is 2520 nM and the TGI is 6620 nM.
Consider `CCCCCCCCCCCCCCCCCCOc1ccccc1CC(=O)OCC[N+]1(C)CCCCC1`, for which the GI50 is 1530 nM and the TGI worked out at 3830 nM.
Turning to `COc1ccc(-c2cc(=O)[nH]c3c(OC)c4ccccc4c(OC)c23)cc1`, the GI50 is 557 nM.
In the case of `CCN(CC)c1ccc(/C=N/NC(=O)c2ccc(NS(C)(=O)=O)cc2)c(O)c1`, the GI50 was 331 nM and the TGI is 2930 nM.
On to `CC/C=C1/C(=O)C=C[C@@H]1C/C=C\CCCC(=O)OC`, for which the GI50 was 2310 nM and the TGI stood at 6040 nM.
`Cc1cc(O)c(C(C)C)cc1S(=O)(=O)O` (tested in a mixture with another compound): the GI50 is 273 nM and the TGI turned out to be 1180 nM.
In the case of `C=C(C)C(=O)Nc1ccc(NC(C)C)cc1`, the GI50 was greater than 100000 nM and the TGI was greater than 100000 nM.
